Target: NaV 1.8 channel (Homo sapiens, UniProt Q9Y5Y9)
Test: Activity against NaV 1.8 channel (optical membrane potential assay)
Assay type: cell-based
Method in brief: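 FRET membrane-potential assay (coumarin CC2-DMPE donor, oxonol DiSBAC2(3) acceptor plus veratridine) on VIPR; compound added with oxonol for 20–30 min before Na+ add-back stimulation. Activity from background-subtracted 460/580 nm ratio change (baseline 2–7 s, response 15–24 s) relative to tetracaine positive and drug-free negative controls.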

NaV 1.8 channel, sequence (Q9Y5Y9 whole entry): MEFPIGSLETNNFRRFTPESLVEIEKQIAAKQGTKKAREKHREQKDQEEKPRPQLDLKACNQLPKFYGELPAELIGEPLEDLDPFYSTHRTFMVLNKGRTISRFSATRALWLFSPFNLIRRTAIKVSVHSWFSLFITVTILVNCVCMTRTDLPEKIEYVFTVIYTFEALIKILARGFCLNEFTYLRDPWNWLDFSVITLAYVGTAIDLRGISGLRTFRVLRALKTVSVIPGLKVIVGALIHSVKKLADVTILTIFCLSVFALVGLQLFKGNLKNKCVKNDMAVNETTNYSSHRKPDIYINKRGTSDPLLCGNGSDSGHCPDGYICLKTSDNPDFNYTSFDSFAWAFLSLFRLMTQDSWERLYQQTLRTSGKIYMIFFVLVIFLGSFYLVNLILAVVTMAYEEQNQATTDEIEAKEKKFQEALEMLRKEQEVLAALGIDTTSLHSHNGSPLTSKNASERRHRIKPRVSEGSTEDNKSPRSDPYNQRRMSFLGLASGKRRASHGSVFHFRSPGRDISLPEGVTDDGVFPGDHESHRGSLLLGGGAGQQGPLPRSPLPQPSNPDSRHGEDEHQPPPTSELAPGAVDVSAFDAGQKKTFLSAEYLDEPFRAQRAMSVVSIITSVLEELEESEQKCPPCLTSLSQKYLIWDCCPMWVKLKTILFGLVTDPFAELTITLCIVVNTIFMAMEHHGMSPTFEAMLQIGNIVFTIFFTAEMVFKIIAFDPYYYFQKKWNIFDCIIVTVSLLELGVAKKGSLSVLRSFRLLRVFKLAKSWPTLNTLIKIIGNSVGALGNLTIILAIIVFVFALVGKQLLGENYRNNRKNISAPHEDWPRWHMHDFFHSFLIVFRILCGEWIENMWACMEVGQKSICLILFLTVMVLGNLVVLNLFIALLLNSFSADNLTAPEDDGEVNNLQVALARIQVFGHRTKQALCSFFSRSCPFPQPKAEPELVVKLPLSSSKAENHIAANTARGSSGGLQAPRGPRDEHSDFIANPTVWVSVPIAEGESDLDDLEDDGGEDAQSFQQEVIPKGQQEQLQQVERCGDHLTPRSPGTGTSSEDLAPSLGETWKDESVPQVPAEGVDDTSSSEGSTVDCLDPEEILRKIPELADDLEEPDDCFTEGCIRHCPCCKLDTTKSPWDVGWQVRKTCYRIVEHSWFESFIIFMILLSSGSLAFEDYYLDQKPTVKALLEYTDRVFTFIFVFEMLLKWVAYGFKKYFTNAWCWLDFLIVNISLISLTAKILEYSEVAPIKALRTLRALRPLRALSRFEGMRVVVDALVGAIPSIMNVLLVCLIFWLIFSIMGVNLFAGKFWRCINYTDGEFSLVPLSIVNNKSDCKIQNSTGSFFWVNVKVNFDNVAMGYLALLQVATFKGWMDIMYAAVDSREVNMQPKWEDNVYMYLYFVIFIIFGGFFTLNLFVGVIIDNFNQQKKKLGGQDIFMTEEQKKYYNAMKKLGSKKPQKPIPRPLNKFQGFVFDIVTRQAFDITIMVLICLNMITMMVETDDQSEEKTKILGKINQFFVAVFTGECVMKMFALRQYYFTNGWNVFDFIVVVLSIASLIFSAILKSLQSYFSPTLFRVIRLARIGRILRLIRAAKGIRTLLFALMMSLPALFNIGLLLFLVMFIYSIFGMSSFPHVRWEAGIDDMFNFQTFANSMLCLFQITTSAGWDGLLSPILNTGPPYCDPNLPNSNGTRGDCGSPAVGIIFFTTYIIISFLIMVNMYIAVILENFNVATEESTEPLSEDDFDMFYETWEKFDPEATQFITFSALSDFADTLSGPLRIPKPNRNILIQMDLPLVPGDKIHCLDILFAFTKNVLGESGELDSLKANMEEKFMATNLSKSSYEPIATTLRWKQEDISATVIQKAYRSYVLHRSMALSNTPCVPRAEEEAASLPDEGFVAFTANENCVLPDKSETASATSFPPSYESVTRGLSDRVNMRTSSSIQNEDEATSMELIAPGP

Compound	IC50 [µM]
Cc1ccc2c(N3CC[C@@H](NC(=O)c4ccccn4)C3)nc(-c3c(O)cccc3F)nc2c1 [Example 351, N—((R)-1-(2-(2-Fluoro-6-hydroxyphenyl)-7-methylquinazolin-4-yl)pyrrolidin-3-yl)picolinamide]	2 to 10
Cc1ccc2c(N3CC[C@@H](NC(=O)CCC4CCCC4)C3)nc(-c3ccccc3O)nc2c1 [Example 323, (R)-3-Cyclopentyl-N-{1-[2-(2-hydroxy-phenyl)-7-methyl-quinazolin-4-yl]-pyrrolidin-3-yl}-propionamide]	> 10
Cc1ccc2c(N3CC[C@@H](NC(=O)OCc4ccncc4)C3)nc(-c3ccccc3O)nc2c1 [Example 320, (Pyridin-4-yl)methyl (R)-1-(2-(2-hydroxyphenyl)-7-methylquinazolin-4-yl)pyrrolidin-3-ylcarbamate]	2 to 10
Cc1ccc2c(N3CC[C@@H](NC(=O)CCc4ccccn4)C3)nc(-c3ccccc3O)nc2c1 [Example 318, N—((R)-1-(2-(2-Hydroxyphenyl)-7-methylquinazolin-4-yl)pyrrolidin-3-yl)-3-(pyridin-2-yl)propanamide]	> 10
Cc1ccc2c(N3CCC(NC(=O)OCC4CCCCO4)CC3)nc(-c3ccccc3O)nc2c1 (centres unmarked) [Example 219, {1-[2-(2-Hydroxy-phenyl)-7-methyl-quinazolin-4-yl]-piperidin-4-yl}-carbamic acid tetrahydro-pyran-2-ylmethyl ester]	< 2
Cc1ccc2c(N3CCC(NC(=O)CCc4ccccn4)CC3)nc(-c3ccccc3O)nc2c1 [Example 223, N-(1-(2-(2-Hydroxyphenyl)-7-methylquinazolin-4-yl)piperidin-4-yl)-3-(pyridin-2-yl)propanamide]	> 10
Cc1ccc2c(N3CCN(C(=O)CCC4CCCC4)CC3)nc(-c3ccccc3O)nc2c1 [Example 127, 3-Cyclopentyl-1-(4-(2-(2-hydroxyphenyl)-7-methylquinazolin-4-yl)piperazin-1-yl)propan-1-one]	< 2
Cc1ccc2c(N3CCN(C(=O)C(=O)C(C)C)CC3)nc(-c3ccccc3O)nc2c1 [Example 186]	< 2
Cc1ccc2c(N3CC[C@H](CNC(=O)OCc4ccccc4)C3)nc(-c3ccccc3O)nc2c1 [Example 362, Benzyl ((R)-1-(2-(2-hydroxyphenyl)-7-methylquinazolin-4-yl)pyrrolidin-3-yl)methylcarbamate]	> 10
Cc1ccc2c(N3CCN(C(=O)[C@H](O)CC(C)(C)O)CC3)nc(-c3ccccc3O)nc2c1 [Example 164, (R)-2,4-Dihydroxy-1-(4-(2-(2-hydroxyphenyl)-7-methylquinazolin-4-yl)piperazin-1-yl)-4-methylpentan-1-one]	> 10
Cc1ccc2c(N3CCN(C(=O)[C@H](O)C(F)(F)F)CC3)nc(-c3ccccc3O)nc2c1 [Example 177, (S)-3,3,3-Trifluoro-2-hydroxy-1-(4-(2-(2-hydroxyphenyl)-7-methylquinazolin-4-yl)piperazin-1-yl)propan-1-one]	2 to 10
Cc1ccc2c(N3CCCC(CNC(=O)O[C@@H]4CCOC4)C3)nc(-c3ccccc3O)nc2c1 (stereo partly drawn) [Example 210, (R)-Tetrahydrofuran-3-yl (1-(2-(2-hydroxyphenyl)-7-methylquinazolin-4-yl)piperidin-3-yl)methylcarbamate]	2 to 10
Cc1ccc2c(N3CCN(C(=O)OCc4ccncc4)CC3)nc(-c3ccccc3O)nc2c1 [Example 152, (Pyridin-4-yl)methyl 4-(2-(2-hydroxyphenyl)-7-methylquinazolin-4-yl)piperazine-1-carboxylate]	> 10
Cc1ccc2c(N3CC[C@H](NC(=O)OC(C)(C)C)C3)nc(-c3ccccc3O)nc2c1 [Example 370, tert-Butyl (S)-1-(2-(2-hydroxyphenyl)-7-methylquinazolin-4-yl)pyrrolidin-3-ylcarbamate]	< 2
Cc1ccc2c(N3CCC(CNC(=O)C(O)C(C)C)CC3)nc(-c3ccccc3O)nc2c1 (centres unmarked) [Example 266]	2 to 10
Cc1ccc2c(N3CCN(C(=O)[C@H](O)CC(C)C)CC3)nc(-c3cc(F)ccc3O)nc2c1 [Example 136, (R)-1-(4-(2-(5-Fluoro-2-hydroxyphenyl)-7-methylquinazolin-4-yl)piperazin-1-yl)-2-hydroxy-4-methylpentan-1-one]	> 10
Cc1ccc2c(N3CC[C@@H](NC(=O)C(O)c4ccc(F)cc4)C3)nc(-c3c(O)cccc3F)nc2c1 (stereo partly drawn) [Example 359, N—((R)-1-(2-(2-Fluoro-6-hydroxyphenyl)-7-methylquinazolin-4-yl)pyrrolidin-3-yl)-2-(4-fluorophenyl)-2-hydroxyacetamide]	> 10
CCCC(O)C(=O)N1CCN(c2nc(-c3ccccc3O)nc3cc(C)ccc23)CC1 (centres unmarked) [Example 134, 2-Hydroxy-1-(4-(2-(2-hydroxyphenyl)-7-methylquinazolin-4-yl)piperazin-1-yl)pentan-1-one]	2 to 10
Cc1ccc2c(N3CC(C(=O)NCc4ccncc4)C3)nc(-c3ccccc3O)nc2c1 [Example 401, 1-(2-(2-Hydroxyphenyl)-7-methylquinazolin-4-yl)-N-((pyridin-4-yl)methyl)azetidine-3-carboxamide]	> 10
Cc1ccc2c(N3CCC(NC(=O)OCC4CCCO4)CC3)nc(-c3ccccc3O)nc2c1 (centres unmarked) [Example 274]	2 to 10
Cc1ccc2c(N3CCC(CNC(=O)[C@H](O)C(C)C)CC3)nc(-c3ccccc3O)nc2c1 [Example 269]	> 10
O=C(N[C@@H]1CCN(c2nc(-c3ccccc3O)nc3ccc(F)cc23)C1)O[C@@H]1CCOC1 [Example 337, (R)-Tetrahydrofuran-3-yl (R)-1-(6-fluoro-2-(2-hydroxyphenyl)quinazolin-4-yl)pyrrolidin-3-ylcarbamate]	2 to 10
CC[C@H](O)C(=O)NC1CCN(c2nc(-c3ccccc3O)nc3ccccc23)CC1 [Example 237, (2S)-2-Hydroxy-N-(1-(2-(2-hydroxyphenyl)quinazolin-4-yl)piperidin-4-yl)butanamide]	> 10
Cc1ccc2c(N3CCC[C@@H](CNC(=O)O[C@H]4CO[C@@H]5OCC[C@@H]54)C3)nc(-c3ccccc3O)nc2c1 [Example 281]	2 to 10
Cc1ccc2c(N3CCC(NC(=O)OCc4cccnc4)CC3)nc(-c3ccccc3O)nc2c1 [Example 227, (Pyridin-3-yl)methyl 1-(2-(2-hydroxyphenyl)-7-methylquinazolin-4-yl)piperidin-4-ylcarbamate]	> 10
Cc1ccc2c(N3CCC[C@@H](CNC(=O)O[C@H]4CCOC4)C3)nc(-c3c(O)cccc3F)nc2c1 [Example 231, (S)-Tetrahydrofuran-3-yl ((S)-1-(2-(2-fluoro-6-hydroxyphenyl)-7-methylquinazolin-4-yl)piperidin-3-yl)methylcarbamate]	2 to 10
Cc1ccc2c(N3CC(C(=O)NCc4cccc(OC(F)(F)F)c4)C3)nc(-c3ccccc3O)nc2c1 [Example 403, N-(3-(Trifluoromethoxy)benzyl)-1-(2-(2-hydroxyphenyl)-7-methylquinazolin-4-yl)azetidine-3-carboxamide]	> 10
CC(C)(O)C(=O)NC1CCN(c2nc(-c3ccccc3O)nc3ccccc23)CC1 [Example 235, 2-Hydroxy-N-(1-(2-(2-hydroxyphenyl)quinazolin-4-yl)piperidin-4-yl)-2-methylpropanamide]	2 to 10
Cc1ccc2c(N3CCC(C(=O)NCC4CCCO4)CC3)nc(-c3ccccc3O)nc2c1 (centres unmarked) [Example 271]	> 10
